Experimental data from patent US20080249153A1, “ANTHELMINTIC FORMULATIONS” (priority 2005, published 2008).
Read-outs that look alike come from different tables or passages of the source. Each block holds one molecule with its values, some of them ahead of it.

Assays:
[1] = Solubility studies of benzimidazoles (triclabendazole, oxfendazole, albendazole, ricobendazole) in different organic solvents; assay type: physicochemical
Experimental: As a comparison trials were conducted to determine the solubility of various members of the benzimidazole family in different solvents.
But more importantly it was discovered that triclabendazole is extremely soluble in 2-pyrrolidone and PEG 400 with more than 500 mg of triclabendazole capable of being dissolved in a ml of these solvents. This is particularly advantageous as it allows for formulations of low volume to be formulated for delivery to cattle and other animals.

[2] = Solubility studies of triclabendazole in different alcohols; assay type: physicochemical
[3] = solvents such as benzyl alcohol, propylene glycol, NMP, 2-pyrollidone, PEG, glycerol formal and butyl dioxitol

Compound: CCCSc1ccc2nc(NC(=O)OC)[nH]c2c1 [albendazole]
- Solubility (in words) [1, 3]: either insoluble or so insignificantly soluble

Compound: COC(=O)Nc1nc2ccc([S+]([O-])c3ccccc3)cc2[nH]1 (centres unmarked) [oxfendazole]
- Solubility (in words) [1]: either insoluble or so insignificantly soluble

Compound: CCC[S+]([O-])c1ccc2[nH]c(NC(=O)OC)nc2c1 (centres unmarked) [ricobendazole]
- Solubility (in words) [1, 3]: either insoluble or so insignificantly soluble

- Solubility (in words) [1]: more soluble generally
- Quantity dissolved in 10 ml solvent ([1]; in 10 ml 2-pyrrolidone, flowable in nature): 10.0 g (flowable
- Quantity dissolved in 10 ml solvent ([1]; in 10 ml Benzyl Alcohol, max solubility): 5.0 g (Max
- Quantity dissolved in 10 ml solvent ([1]; in 10 ml DGBE (butyl dioxitol), max solubility): 2.0 g (Max
- Quantity dissolved in 10 ml solvent ([1]; in 10 ml Glyceryl Formal, max solubility): 1 g (Max
- Quantity dissolved in 10 ml solvent ([1]; in 10 ml NMP, max solubility): 4.5 g (Max
- Quantity dissolved in 10 ml solvent ([1]; in 10 ml PEG400, flowable in nature): 10.0 g (flowable
- Quantity dissolved in 10 ml solvent ([1]; in 10 ml Propylene Glycol, max solubility): 1.5 g (Max
- Amount dissolved ([1]; solvent Benzyl Alcohol, max solubility): 357.14 mg/mL
- Amount dissolved ([1]; solvent DGBE (butyl dioxitol), max solubility): 166.66 mg/mL
- Amount dissolved ([1]; solvent Glyceryl Formal, max solubility): 90.91 mg/mL
- Amount dissolved ([1]; solvent NMP (N-methyl pyrrolidone), max solubility): 321.43 mg/mL
- Amount dissolved ([1]; solvent Propylene Glycol, max solubility): 136.36 mg/mL
- Amount dissolved ([2]; solvent 1-butanol): 117.5 mg/mL
- Quantity dissolved in solvent ([2]; solvent 1-butanol): 2 gm/15 ml
- Amount dissolved ([2]; solvent 1-hexanol): 117.5 mg/mL
- Quantity dissolved in solvent ([2]; solvent 1-hexanol): 2 gm/15 ml
- Amount dissolved ([2]; solvent Ethyl alcohol): 88.88 mg/mL
- Quantity dissolved in solvent ([2]; solvent Ethyl alcohol): 2 gm/20 ml
- Amount dissolved ([2]; solvent Isopropyl alcohol): 117.5 mg/mL
- Quantity dissolved in solvent ([2]; solvent Isopropyl alcohol): 2 gm/15 ml
- Amount dissolved ([2]; solvent Methyl alcohol): 88.88 mg/mL
- Quantity dissolved in solvent ([2]; solvent Methyl alcohol): 2 gm/20 ml
Compound: CSc1nc2cc(Cl)c(Oc3cccc(Cl)c3Cl)cc2[nH]1 [triclabendazole, 5-Chloro-6-(3,3-dichlorophenoxy)-2-methylthio-1H-benzimidazole]
